A short description of this data set: Bulk density / apparent volume (Ph. Eur. edn. 6, test 2.9.15 or USP 31 <616>). The settings on record: API prior to granulation / preparation prior to forming the final formulation. In kind it is physicochemical. The protocol: Suitable methods for determining the bulk density of the preparation will be well known to the skilled chemist, for example, the European Pharmacopeia edition 6, Test 2.9.15 “apparent volume”, pages 285-286, EDQM, 2007, or USP 31, vol. 1 test <616> page 231-232, The United States Pharmacopeia Convention, 2008. The apparent density of a compressed formulation is measured in terms of mass and volume of the formulation and is well within the capabilities of the skilled person.
A suitable method is described below: • Apparatus • settling apparatus capable of producing in 1 minute 250±15 taps from a height of 3±0.2 mm. The support for the graduated cylinder with its holder, has a mass of 450±5 g • a 250 ml graduated cylinder (2 ml intervals) with a mass of 220±40 g • Method • Into a dry cylinder, introduce without compacting, 100.0 g […] of the test substance. Secure the cylinder in its holder. Read the unsettled apparent volume (V0) to the nearest milliliter. Carry out 10, 500 and 1250 taps and read the corresponding volumes V10, V500, V1250, to the nearest milliliter. If the difference between V500 and V1250 is greater than 2 ml, carry out another 1250 taps. […]
Bulk/apparent density may then be determined in g/ml using the following formula: m/V0 where m is the mass in grams and V0 the unsettled apparent volume

For licarbazepine acetate, the Bulk density result is “less than 0.3 g/mL”. Also, the Bulk density entry (listed as API) is given as “about 0.28 g/mL”.

Values taken from patent publication US10912781B2, “Pharmaceutical composition comprising licarbazepine acetate” (BIAL-Portela & C.A., S.A., priority 2007, dated 2021).
